# Measured values taken from PMC11582173, “Synthesis, cytotoxicity, anti-inflammatory, anti-metastatic and anti-oxidant activities of novel chalcones incorporating 2-phenoxy-N-arylacetamide and thiophene moieties: induction of apoptosis in MCF7 and HEP2 cells” (Naunyn-Schmiedeberg's Archives of Pharmacology, 2024).
# Columns and labels:
# [1] = tested on: IL-1B gene; experiment: Real-time PCR, IL-1B gene expression; type: cell-based, human; conditions: relative to untreated control (1)
# Method: The expression level of the following six genes (Ki-67, Survivin, Interleukin-1 beta (IL-1B), Interleukin-6 (IL-6), Cyclooxygenase-2 (COX-2) and protein kinase B (AKT1)) was determined in MCF7 and HEP2 treated with the IC50 of compound 5c. The untreated cells were used as a negative control for comparison purposes. […] Ki-67 is a popular proliferation marker for human tumor cells. […] Survivin is an inhibitor of apoptotic protein (IAP) family member, which is essential for cell division. The lowering of the expression of survivin inhibited tumor development, triggered apoptosis, and made tumor cells more susceptible to radiation and chemotherapy (Albadari and Li [2023]). […] IL-1B is a pleiotropic mediator of inflammation, which is produced in response to a variety of stressors (Aarreberg et al. [2019]). […] IL-6 is a pro-inflammatory cytokine that plays a significant role in the proliferation and differentiation of human cells. It promotes the production of numerous proteins involved in acute inflammation (Uciechowski and Dempke [2020]). […]
# The expression level of the following six genes (Ki-67, survivin, AKT1, IL-6, COX2, and IL-1B) was examined using real-time polymerase chain reaction (qPCR) (Mohamed et al. [2023a]). […] The cycle threshold (Ct) was determined automatically. […]
# [2] = tested on: MCF7 cells; experiment: Wound healing scratch assay, MCF7; type: cell-based, human; conditions: MCF7, 5c at its IC50, 48 h; untreated C0 518.531±12.437, C48 h 160.647±61.276
# Method: To examine the effect of chalcone 5c on the migration properties of the MCF7 and HEP2 cells, the wound-healing scratch assay was used. […] Chalcone 5c at its IC50 reduced the ability to close the scrape wound and decreased the number of migrating MCF7 and HEP2 cells compared to the untreated cells (Fig. 4 and Table 6). The scratch gap percentage in 5c treated MCF7 was 344.684±41.224 relative to the control cells (160.647±61.276) after 48 h of treatment. The scratch gap in HEP2 treated with 5c was 567.281±112.789 compared to the untreated control HEP2 cells (211.604±79.883) after 48 h.
# MCF7 and HEP2 treated and untreated cells were detached from the tissue culture plate using 0.25% Trypsin-EDTA solution. Cells pellet was prepared in a 15 mL conical tube by centrifugation. The supernatant was aspirated, and the cells were re-suspended in culture media. The appropriate number of cells was platted in a 6-well plate for 100% confluence in 24 hours. In a sterile environment (typically a biosafety hood), a 200 μL pipette tip was used to press firmly against the […] of the tissue culture plate and swiftly made a vertical wound down through the cell monolayer. Carefully, the media and cell debris were aspirated. Slowly, enough culture media was added against the good wall to cover the bottom of the well and avoid detaching additional cells. […]
smiles,measurement,setting,value
"COc1ccc(NC(=O)COc2ccc(C=CC(=O)c3cccs3)cc2)cc1 [Compound 5c, N-(4-Methoxyphenyl)-2-(4-(3-oxo-3-(thiophen-2-yl)prop-1-en-1-yl)phenoxy)acetamide]",IL-1B expression folding,[1]; HEP2 cells treated with IC50 of 5c,0.461±0.069 fold
same,IL-1B expression folding,[1]; MCF7 cells treated with IC50 of 5c,0.4008±0.116 fold
same,% Scratch gap,[2],344.684±41.224%
